Laboratory results: US12370193B2, “Method of inhibiting TREM-1” (UNIVERSITY OF FLORIDA RESEARCH FOUNDATION, INCORPORATED, priority 2019, dated 2025)

Legend:
RORα = assay: Gal4-RORα co-transfection promoter-reporter assay; assay type: cell-based; conditions: Gal4 assay format
Description: (§1) Reporter gene assays: Twenty-four hours before transfection, HEK293T cells were plated in 96-well plates at a density of 15×10^3 cells per well. UAS:luciferase reporter and Ga14-RORa, Gal4-RORb, Gal4-RORγ, Gal4-LXRα, or Gal4 PPARγ DNA co-transfections were performed using X-tremeGENE 9 (Roche). Twenty-four hours after transfection, the cells were treated with vehicle or compound. Twenty-four hours after treatment, the luciferase activity was measured using the Dual-Glo luciferase assay system (Promega). Results were analyzed using GraphPad Prism software.

TREM-1 [1] = assay: TREM-1 gene expression in LPS-stimulated RAW264.7 cells (RNA sequencing, qPCR); assay type: cell-based, mouse; conditions: 26 hr exposure
Description: (§2) FIG. 2B are graphs showing TREM-1 gene expression by q-PCR. […] All experiments were performed with 3 biological replicates and the median value of TREM-1 fluorescence was represented by the graph on the bottom.
Quantitative RT-PCR: Total RNA was extracted from EL4 or RAW264.7 cells using RNeasy Plus Micro Kit (Qiagen) and the RNA was reverse transcribed using the ABI reverse transcription kit (Applied Biosystems/Thermo Fisher Scientific, Waltham MA). Quantitative PCR was performed with a 7900HT Fast Real Time PCR System (Applied Biosystems) using SYBR green (Roche).
mRNA sequencing analysis: RAW264.7 cells RNA extraction protocol for RNA seq was derived from Qiagen Kit-74106. Total RNA was quantified using the Qubit 2.0 Fluorometer (Invitrogen, Carlsbad, CA) and run on the Agilent 2100 Bioanalyzer (Agilent Technologies, Santa Clara, CA) for quality assessment. RNA samples of good quality with RNA Integrity Number (RIN)>8.0 were further processed. A RNase-free working environment was maintained and RNase-free tips, Eppendorf tubes and plates were utilized for the subsequent steps. Messenger RNA was selectively isolated from total RNA (300 ng input) using poly-T oligos attached to magnetic beads and converted to sequence-ready libraries using the TruSeq stranded mRNA sample prep protocol (Cat. #: RS-122-2101, Illumina, San Diego, CA). The final libraries were validated on the bioanalyzer DNA chips and qPCR quantified using primers that recognize the illumina adaptors. The libraries were then pooled at equimolar ratios, quantified using qPCR and loaded onto the NextSeq 500 flow cell at 1.8 pM final concentration. They were sequenced using the high-output, paired-end, 75-bp chemistry. Demultiplexed and quality filtered raw reads (fastq) generated from the NextSeq 500 were trimmed (adaptor sequences) using Flexbar 2.4 and aligned to the mouse reference database (mm9) using TopHat version 2.0.9 (Trapnell et al., 2009). HTseq-count version 0.6.1 was used to generate gene counts and differential gene expression analysis was performed using Deseq2 (Anders and Huber, 2010).

RORβ = assay: Gal4-RORβ co-transfection promoter-reporter assay; assay type: cell-based; conditions: Gal4 assay format
Description: as §1

RORγ = target: T1, RORγ (Homo sapiens, UniProt P51449); assay: Gal4-RORγ co-transfection promoter-reporter assay; conditions: cell-based promoter-reporter Gal4 assay format, HEK293T cells
T1 sequence (P51449 269-518 limits assumed): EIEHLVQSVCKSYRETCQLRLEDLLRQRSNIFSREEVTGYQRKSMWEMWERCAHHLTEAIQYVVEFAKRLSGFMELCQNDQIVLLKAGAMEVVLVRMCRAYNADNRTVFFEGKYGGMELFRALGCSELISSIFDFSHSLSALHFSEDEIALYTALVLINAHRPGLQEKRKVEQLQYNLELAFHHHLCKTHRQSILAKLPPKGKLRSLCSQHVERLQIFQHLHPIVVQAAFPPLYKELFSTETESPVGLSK

LXRα = target: T2, LXRα (Homo sapiens, UniProt Q13133); assay: Gal4-LXRα co-transfection promoter-reporter assay; assay type: cell-based; conditions: HEK293T cells, read-out: LXR agonist activity EC50
T2 sequence (Q13133 209-447 limits assumed): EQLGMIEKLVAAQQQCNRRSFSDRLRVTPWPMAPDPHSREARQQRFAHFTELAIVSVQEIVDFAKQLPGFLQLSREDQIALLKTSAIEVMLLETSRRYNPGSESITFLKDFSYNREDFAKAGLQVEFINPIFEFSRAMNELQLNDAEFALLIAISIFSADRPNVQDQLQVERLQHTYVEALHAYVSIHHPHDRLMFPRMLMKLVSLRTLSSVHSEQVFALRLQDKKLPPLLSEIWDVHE
From the text: FIGS. 1A to 1E: Pan modulator with poly-pharmacology. […] FIG. 1D is a graph showing PPARγ target genes (aP2 and CD36) expression in OP9 cells with and without MDI (IBMX, dexamethasone, insulin) treatment. […] SR1903 is represented as orange sticks while PPARγ, RORγ, and LXRβ are depicted as blue ribbons respectively. Specific residues driving the interaction labelled and shown as sticks as well. […] FIG. 1F are graphs showing RORγ target genes (IL17A and IL17F) expression in EL4 cells.
as §1

EL4 cells = assay: RORγ target gene expression in PMA/ionomycin stimulated EL4 cells; assay type: cell-based; conditions: PMA and ionomycin, compound at 10 μM
From the text: FIG. 1D is a graph showing PPARγ target genes (aP2 and CD36) expression in OP9 cells with and without MDI (IBMX, dexamethasone, insulin) treatment. […] Specific residues driving the interaction labelled and shown as sticks as well. […] Quantitative RT-PCR: Total RNA was extracted from EL4 or RAW264.7 cells using RNeasy Plus Micro Kit (Qiagen) and the RNA was reverse transcribed using the ABI reverse transcription kit (Applied Biosystems/Thermo Fisher Scientific, Waltham MA). Quantitative PCR was performed with a 7900HT Fast Real Time PCR System (Applied Biosystems) using SYBR green (Roche).

TREM-1 [2] = assay: TREM-1 surface expression by FACS in LPS-stimulated RAW264.7 cells; assay type: cell-based, mouse; conditions: 50 hr incubation
Description: as §2
Flow cytometry and antibodies: For the analysis of macrophage activation, RAW264.7 cells (American Type Culture Collection) were pre-incubated with 5 μM 1903 for 18 h then stimulated with 1 μg/mL LPS (Escherichia coli 0127:B8, Sigma-Aldrich (St. Louis, MO)) for 6 h. RAW264.7 cells were stained with APC conjugated anti-TREM-1 antibody (eBioscience). Cell sorting was performed using LSRII (BD Bioscience).

[3] = tested on: collagen-induced arthritis; assay: Collagen-induced arthritis (CIA) mouse model; conditions: for enlargement of the liver: CIA mice, 20 mg/kg
Description: Clinical score was monitored every day after boosting during 18 days. […] The dosage of all compounds was identical in each group.
Briefly, DBA/1J mice were injected with chicken type II collagen on day 1 and then each animal received a boost injection of collagen on Day 21. Compound treatment, initiated on day 3-post boost injection, was administered intraperitoneally at 20 mg/kg twice-a-day for a total of 16 days. […] Mice: All mice were maintained in a specific pathogen-free environment in accordance with institutional protocol. […] Female DBA/1J mice were purchased from Taconic. CIA was induced in 8 weeks as previously described^40.

TH17 cells = conditions: Chang et al. study; cited from earlier work
[4] = tested on: collagen-induced arthritis; conditions: Chang et al. (2014); cited from earlier work

For O=C(O)Cc1cccc(OCCCN(Cc2cccc(C(F)(F)F)c2Cl)CC(c2ccccc2)c2ccccc2)c1 [GW3965, reference compound], the “activity on RORα” value (RORα) was “lack activity”, the “LPS induction of TREM-1 gene expression (qPCR)” value (TREM-1 [1]) was “significantly repressed” and the “activity on RORβ” value (RORβ) was “lack activity”. The IC50 (RORγ) was 43 µM, the EC50 (LXRα) was 0.154 µM and the IL17F expression (EL4 cells) was “lacked the ability to repress”. For the same compound, the “LPS-induced TREM1 cell surface expression” value (TREM-1 [2]) was “only modestly dampened”, the “enlargement of the liver” value [3] was “did not cause enlargement of the liver” and the arthritis clinical score ([3]; Day 34, 20 mg/kg i.p. twice-a-day, vehicle 13.6±2.9) was “only very modest effects”.
In the case of OC(c1ccc(-c2ccc(CN3CCN(Cc4ccncc4)CC3)cc2)c(F)c1)(C(F)(F)F)C(F)(F)F [SR2211], the “IL-17 and IL-23R expression” value (TH17 cells) is given as “reduced”, the TH17 cell differentiation (TH17 cells) is given as “inhibited” and the “therapeutic effect in CIA mice” value [4] is given as “robust therapeutic effect”.
In the case of O=S(=O)(c1ccccc1)N(CC(F)(F)F)c1ccc(C(O)(C(F)(F)F)C(F)(F)F)cc1 [T0901317, N-(2,2,2-trifluoroethyl)-N-[4-[2,2,2-trifluoro-1-hydroxy-1-(trifluoromethyl)ethyl]phenyl]-benzenesulfonamide, reference compound], the “enlargement of the liver” value [3] is reported as “negative effect on liver”.
